Values of other authors in PMC9102399 (Molecules, 2022).
Blank lines part the entries; values can stand above or below the molecule they belong to.

Columns and labels:
[1] = design: method as in earlier work; settings: SD rats
[2] = beagle dogs
[3] = rats, oral; curcumin 500 mg/kg

t1/2 of oral CUR II [1]: about 5.5 h
Structure (SMILES): COc1cc(C=CC(=O)CC(=O)C=Cc2ccc(O)cc2)ccc1O [CUR II, 4-hydroxycinnamoyl-[4-hydroxy-3-methoxycinnamoyl] methane]

oral t1/2 of CUR [2]: about 0.85 h
Structure (SMILES): COc1cc(C=CC(=O)CC(=O)C=Cc2ccc(O)c(OC)c2)ccc1O [CUR, 1,7-bis [4-hydroxy-3-methoxy-phenyl]-hepta-1,6-diene-3,5-dione]

time of maximal plasma concentration [3]: 30 min
Structure (SMILES): COc1cc(/C=C/C(=O)CC(=O)/C=C/c2ccc(O)c(OC)c2)ccc1O [curcumin]
